From patent publication US20240245709A1, “[…] USE IN TREATMENT OF E[…] EPILEPTICUS” (MARINUS PHARMACEUTICALS, INC., priority 2021, published 2024)

Columns and labels:
[1] = Toxicology studies in animals focusing on prenatal and neonatal development; format: in vivo
Description: (§1) Ganaxolone has been administered to infants with severe forms of epilepsy as early as 4 months of age. In clinical trials involving administration of ganaxolone over several weeks, the study drug has been tapered off over a 1 to 2-week period.

[2] = human plasma, oral administration; cited from earlier work
[3] = molecular target: T1, progesterone receptor (Homo sapiens, UniProt P06401); test: Progesterone receptor activation; conditions: directly or indirectly, via metabolic conversion
T1 sequence (P06401 1-933): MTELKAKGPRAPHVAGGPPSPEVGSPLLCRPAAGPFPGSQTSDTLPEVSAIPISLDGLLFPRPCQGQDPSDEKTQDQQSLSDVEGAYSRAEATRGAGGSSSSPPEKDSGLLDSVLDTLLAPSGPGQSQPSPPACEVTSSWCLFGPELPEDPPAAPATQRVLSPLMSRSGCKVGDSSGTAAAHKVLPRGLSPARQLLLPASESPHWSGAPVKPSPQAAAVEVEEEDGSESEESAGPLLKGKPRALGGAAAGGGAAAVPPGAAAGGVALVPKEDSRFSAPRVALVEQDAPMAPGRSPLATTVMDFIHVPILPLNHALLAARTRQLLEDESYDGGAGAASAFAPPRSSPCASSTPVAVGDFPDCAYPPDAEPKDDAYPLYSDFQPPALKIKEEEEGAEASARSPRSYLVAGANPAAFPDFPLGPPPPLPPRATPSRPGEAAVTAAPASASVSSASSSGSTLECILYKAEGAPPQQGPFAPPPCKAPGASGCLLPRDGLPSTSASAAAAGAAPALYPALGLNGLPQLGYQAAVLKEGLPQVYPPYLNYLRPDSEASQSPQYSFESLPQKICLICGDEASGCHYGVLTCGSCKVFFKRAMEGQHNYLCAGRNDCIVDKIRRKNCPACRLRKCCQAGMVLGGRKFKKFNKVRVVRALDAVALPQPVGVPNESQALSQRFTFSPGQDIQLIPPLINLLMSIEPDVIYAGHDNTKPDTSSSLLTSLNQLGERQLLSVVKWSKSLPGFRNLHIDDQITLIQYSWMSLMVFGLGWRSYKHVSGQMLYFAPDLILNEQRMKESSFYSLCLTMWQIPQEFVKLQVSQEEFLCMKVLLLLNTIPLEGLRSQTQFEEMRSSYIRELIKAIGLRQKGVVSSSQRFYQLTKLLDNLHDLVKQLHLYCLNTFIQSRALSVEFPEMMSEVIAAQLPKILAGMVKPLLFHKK
Description: Ganaxolone (3α-hydroxy-3β-methyl-5α-pregnan-20-one) is a 3β-methylated synthetic analogue of the endogenous neurosteroid allopregnanolone with similar biological activity (Carter et al., (1997), The Journal of Pharmacology and Experimental Therapeutics, 280:1284-1295), but it is designed to not activate nuclear (classical) progesterone receptors.

[4] = Solubility of ganaxolone in solvents; format: physicochemical
Procedure: (§2) Ganaxolone is insoluble in water. […] 3.5 mg/mL, and 3.1 mg/mL, respectively. Ganaxolone has a relatively long half-life—approximately 20 hours in human plasma following oral administration (Nohria, V. and Giller, E., Neurotherapeutics, (2007) 4(1): 102-105). Furthermore, ganaxolone has a short Tmax, which means that therapeutic blood levels are reached quickly.
Ganaxolone formulations suitable for parenteral administration in the methods of the present invention may comprise physiologically acceptable sterile aqueous or non-aqueous solutions, dispersions, suspensions or emulsions, and sterile powders for reconstitution into sterile injectable solutions or dispersions. Examples of suitable aqueous and non-aqueous carriers, diluents, solvents, or vehicles including water, ethanol, polyols (propylene glycol, polyethylene-glycol, glycerol, cremophor and the like), suitable mixtures thereof, vegetable oils (such as olive oil) and injectable organic esters such as ethyl oleate. Additionally, ganaxolone can be dissolved at concentrations of >1 mg/ml using water soluble beta cyclodextrins (e.g. beta-sulfobutyl-cyclodextrin and 2-hydroxypropylbetacyclodextrin). A particularly suitable cyclodextrin is a substituted-β-cyclodextrin is Captisol®. […]

[5] = Human plasma pharmacokinetics following oral administration; format: in vivo
Procedure: as §2

[6] = Clinical safety in the ganaxolone development program (placebo-controlled Phase 1, 2 and 3 studies); format: in vivo, human
Description: In the completed placebo-controlled Phase 1, 2, and 3 studies, 0.32% of subjects who received ganaxolone and 0.46% of subjects who received placebo developed elevated LFTs during the study (>3×ULN AST and/or ALT). A subject participating in the ganaxolone paediatric epilepsy study developed liver failure, which was not considered to be related to ganaxolone. The subject was diagnosed with short bowel syndrome, liver steatosis and IgG-cholangitis, which were considered to be the causal factors for the subject's liver failure. There have been no other cases of Hy's Law or liver failure in the ganaxolone development program. […] After cessation of the dosing, plasma ganaxolone levels are expected to drop rapidly, but it is possible that low sub-therapeutic levels persist for several days as ganaxolone is slowly released from tissues.
as §1

[7] = tested on: CYP3A4/5; test: Metabolism and effect of strong CYP inducers on ganaxolone clearance (in vitro data and human PK data)

## CC(=O)[C@H]1CC[C@H]2[C@@H]3CC[C@H]4C[C@](C)(O)CC[C@]4(C)[C@H]3CC[C@]12C [ganaxolone, 3α-hydroxy-3β-methyl-5α-pregnan-20-one]
[1]
  prenatal and neonatal developmental toxicity: have not demonstrated toxicities
[2]
  half-life: approximately 20 hours
[3]
  activation of the progesterone receptor: does not activate
[4]; aqueous with cosolvent or surfactant or cyclodextrin, beta-sulfobutyl-cyclodextrin and 2-hydroxypropylbetacyclodextrin, read-out: concentration dissolved using water soluble beta cyclodextrins
  solubility: > 1000 µg/mL
[4]; water
  solubility in water: insoluble
[5]; human, in vivo
  Tmax: short
[5]; in contrast to allopregnanolone
  oral bioavailability: orally bioavailable
[6]; clinical trials, several weeks of administration, tapered off over 1 to 2 weeks
  withdrawal symptoms after cessation: no reports of withdrawal symptoms
[6]; completed placebo-controlled Phase 1, 2 and 3 studies
  subjects who developed elevated LFTs (>3×ULN AST and/or ALT): 0.32%
[6]; development program overall
  trends in ECG intervals, vital signs, physical or neurological examinations: no clinically significant trends
[6]; ganaxolone and its metabolites
  excretion to breast milk: excreted to breast milk
[6]; subject, intravenous administration
  plasma concentration that can induce anesthesia: above 1000 ng/ml
[7]; human, in vivo
  metabolizing enzyme: metabolized by CYP3A4/5
[7]; subjects taking strong CYP inducers (carbamazepine and phenytoin)
  lowering in overall ganaxolone levels and exposure: ~45%
